Laboratory results from patent publication US20220175768A1, “FGFR TYROSINE KINASE INHIBITORS FOR THE TREATMENT OF UROTHELIAL CARCINOMA” (Janssen Pharmaceutica NV, priority 2019, published 2022).

[1] = 10 mg intermittent, regimen 1 (n = 33)

## COc1cc(OC)cc(N(CCNC(C)C)c2ccc3ncc(-c4cnn(C)c4)nc3c2)c1 [erdafitinib, N-(3,5-dimethoxy-phenyl)-N′-(1-methylethyl)-N-[3-(1-methyl-1H-pyrazol-4-yl)quinoxalin-6-yl]ethane-1,2-diamine]
[1]
  Patients with Hematuria, Grade ≥3: 0 no. (%)
  Patients with Hyperphosphatemia, Any grade: 16 (48) no. (%)
  Patients with Hyperphosphatemia, Grade 1: 15 (46) no. (%)
  Patients with Hyperphosphatemia, Grade 2: 1 (3) no. (%)
  Patients with Hyperphosphatemia, Grade ≥3: 0 no. (%)
  Patients with Hypomagnesemia, Any grade: 2 (6) no. (%)
  Patients with Hypomagnesemia, Grade 1: 2 (6) no. (%)
  Patients with Hypomagnesemia, Grade 2: 0 no. (%)
  Patients with Hypomagnesemia, Grade ≥3: 0 no. (%)
  Patients with Hyponatremia, Any grade: 2 (6) no. (%)
  Patients with Hyponatremia, Grade 1: 0 no. (%)
  Patients with Hyponatremia, Grade 2: 0 no. (%)
  Patients with Hyponatremia, Grade ≥3: 2 (6) no. (%)
  Patients with Insomnia, Any grade: 3 (9) no. (%)
  Patients with Insomnia, Grade 1: 0 no. (%)
  Patients with Insomnia, Grade 2: 3 (9) no. (%)
  Patients with Insomnia, Grade ≥3: 0 no. (%)
  Patients with Lacrimation increased, Any grade: 6 (18) no. (%)
  Patients with Lacrimation increased, Grade 1: 5 (15) no. (%)
  Patients with Lacrimation increased, Grade 2: 1 (3) no. (%)
  Patients with Lacrimation increased, Grade ≥3: 0 no. (%)
  Patients with Nail dystrophy, Any grade: 2 (6) no. (%)
  Patients with Nail dystrophy, Grade 1: 2 (6) no. (%)
  Patients with Nail dystrophy, Grade 2: 0 no. (%)
  Patients with Nail dystrophy, Grade ≥3: 0 no. (%)
  Patients with Nausea, Any grade: 5 (15) no. (%)
  Patients with Nausea, Grade 1: 3 (9) no. (%)
  Patients with Nausea, Grade 2: 2 (6) no. (%)
  Patients with Nausea, Grade ≥3: 0 no. (%)
  Patients with Onycholysis, Any grade: 7 (21) no. (%)
  Patients with Onycholysis, Grade 1: 3 (9) no. (%)
  Patients with Onycholysis, Grade 2: 3 (9) no. (%)
  Patients with Onycholysis, Grade ≥3: 1 (3) no. (%)
  Patients with Onychomadesis, Any grade: 1 (3) no. (%)
  Patients with Onychomadesis, Grade 1: 1 (3) no. (%)
  Patients with Onychomadesis, Grade 2: 0 no. (%)
  Patients with Onychomadesis, Grade ≥3: 0 no. (%)
  Patients with Oropharyngeal pain, Any grade: 0 no. (%)
  Patients with Oropharyngeal pain, Grade 1: 0 no. (%)
  Patients with Oropharyngeal pain, Grade 2: 0 no. (%)
  Patients with Oropharyngeal pain, Grade ≥3: 0 no. (%)
  Patients with Pain in extremity, Any grade: 5 (15) no. (%)
  Patients with Pain in extremity, Grade 1: 3 (9) no. (%)
  Patients with Pain in extremity, Grade 2: 1 (3) no. (%)
  Patients with Pain in extremity, Grade ≥3: 1 (3) no. (%)
  Patients with Paronychia, Any grade: 2 (6) no. (%)
  Patients with Paronychia, Grade 1: 0 no. (%)
  Patients with Paronychia, Grade 2: 2 (6) no. (%)
  Patients with Paronychia, Grade ≥3: 0 no. (%)
  Patients with Peripheral edema, Any grade: 5 (15) no. (%)
  Patients with Peripheral edema, Grade 1: 1 (3) no. (%)
  Patients with Peripheral edema, Grade 2: 4 (12) no. (%)
  Patients with Peripheral edema, Grade ≥3: 0 no. (%)
  Patients with Pyrexia, Any grade: 5 (15) no. (%)
  Patients with Pyrexia, Grade 1: 5 (15) no. (%)
  Patients with Pyrexia, Grade 2: 0 no. (%)
  Patients with Pyrexia, Grade ≥3: 0 no. (%)
  Patients with Retinal detachment, Any grade: 2 (6) no. (%)
  Patients with Retinal detachment, Grade 1: 1 (3) no. (%)
  Patients with Retinal detachment, Grade 2: 1 (3) no. (%)
  Patients with Retinal detachment, Grade ≥3: 0 no. (%)
  Patients with Stomatitis, Any grade: 16 (48) no. (%)
  Patients with Stomatitis, Grade 1: 9 (27) no. (%)
  Patients with Stomatitis, Grade 2: 6 (18) no. (%)
  Patients with Stomatitis, Grade ≥3: 1 (3) no. (%)
  Patients with Urinary tract infection, Any grade: 4 (12) no. (%)
  Patients with Urinary tract infection, Grade 1: 0 no. (%)
  Patients with Urinary tract infection, Grade 2: 2 (6) no. (%)
  Patients with Urinary tract infection, Grade ≥3: 2 (6) no. (%)
  Patients with Vision blurred, Any grade: 5 (15) no. (%)
  Patients with Vision blurred, Grade 1: 4 (12) no. (%)
  Patients with Vision blurred, Grade 2: 1 (3) no. (%)
  Patients with Vision blurred, Grade ≥3: 0 no. (%)
  Patients with Vomiting, Any grade: 9 (27) no. (%)
  Patients with Vomiting, Grade 1: 7 (21) no. (%)
  Patients with Vomiting, Grade 2: 2 (6) no. (%)
  Patients with Vomiting, Grade ≥3: 0 no. (%)
  Patients with Weight decreased, Any grade: 3 (9) no. (%)
  Patients with Weight decreased, Grade 1: 1 (3) no. (%)
  Patients with Weight decreased, Grade 2: 2 (6) no. (%)
  Patients with Weight decreased, Grade ≥3: 0 no. (%)
  Serious treatment-emergent adverse event: Nervous system disorders: 0 no.
  Serious treatment-emergent adverse event: Urinary tract infection: 0 no.
  Serious treatment-emergent adverse event: Urosepsis: 0 no.
  Treatment-related adverse event: Alopecia, Any grade: 3 (9) no. (%)
  Treatment-related adverse event: Alopecia, Grade 1: 1 (3) no. (%)
  Treatment-related adverse event: Alopecia, Grade 2: 2 (6) no. (%)
  Treatment-related adverse event: Alopecia, Grade ≥3: 0 no. (%)
  Treatment-related adverse event: Asthenia, Any grade: 6 (18) no. (%)
  Treatment-related adverse event: Asthenia, Grade 1: 2 (6) no. (%)
  Treatment-related adverse event: Asthenia, Grade 2: 2 (6) no. (%)
  Treatment-related adverse event: Asthenia, Grade ≥3: 2 (6) no. (%)
  Treatment-related adverse event: Conjunctivitis, Any grade: 4 (12) no. (%)
  Treatment-related adverse event: Conjunctivitis, Grade 1: 3 (9) no. (%)
  Treatment-related adverse event: Conjunctivitis, Grade 2: 1 (3) no. (%)
  Treatment-related adverse event: Conjunctivitis, Grade ≥3: 0 no. (%)
  Treatment-related adverse event: Decreased appetite, Any grade: 6 (18) no. (%)
  Treatment-related adverse event: Decreased appetite, Grade 1: 2 (6) no. (%)
  Treatment-related adverse event: Decreased appetite, Grade 2: 4 (12) no. (%)
  Treatment-related adverse event: Decreased appetite, Grade ≥3: 0 no. (%)
  Treatment-related adverse event: Diarrhea, Any grade: 13 (39) no. (%)
  Treatment-related adverse event: Diarrhea, Grade 1: 7 (21) no. (%)
  Treatment-related adverse event: Diarrhea, Grade 2: 5 (15) no. (%)
  Treatment-related adverse event: Diarrhea, Grade ≥3: 1 (3) no. (%)
  Treatment-related adverse event: Dry mouth, Any grade: 14 (42) no. (%)
  Treatment-related adverse event: Dry mouth, Grade 1: 13 (39) no. (%)
  Treatment-related adverse event: Dry mouth, Grade 2: 1 (3) no. (%)
  Treatment-related adverse event: Dry mouth, Grade ≥3: 0 no. (%)
  Treatment-related adverse event: Dry skin, Any grade: 8 (24) no. (%)
  Treatment-related adverse event: Dry skin, Grade 1: 7 (21) no. (%)
  Treatment-related adverse event: Dry skin, Grade 2: 1 (3) no. (%)
  Treatment-related adverse event: Dry skin, Grade ≥3: 0 no. (%)
  Treatment-related adverse event: Dysgeusia, Any grade: 10 (30) no. (%)
  Treatment-related adverse event: Dysgeusia, Grade 1: 7 (21) no. (%)
  Treatment-related adverse event: Dysgeusia, Grade 2: 3 (9) no. (%)
  Treatment-related adverse event: Dysgeusia, Grade ≥3: 0 no. (%)
  Treatment-related adverse event: Fatigue, Any grade: 4 (12) no. (%)
  Treatment-related adverse event: Fatigue, Grade 1: 2 (6) no. (%)
  Treatment-related adverse event: Fatigue, Grade 2: 2 (6) no. (%)
  Treatment-related adverse event: Fatigue, Grade ≥3: 0 no. (%)
  Treatment-related adverse event: Hand-foot syndrome, Any grade: 2 (6) no. (%)
  Treatment-related adverse event: Hand-foot syndrome, Grade 1: 0 no. (%)
  Treatment-related adverse event: Hand-foot syndrome, Grade 2: 2 (6) no. (%)
  Treatment-related adverse event: Hand-foot syndrome, Grade ≥3: 0 no. (%)
  Treatment-related adverse event: Hyperphosphatemia, Any grade: 15 (46) no. (%)
  Treatment-related adverse event: Hyperphosphatemia, Grade 1: 14 (42) no. (%)
  Treatment-related adverse event: Hyperphosphatemia, Grade 2: 1 (3) no. (%)
  Treatment-related adverse event: Hyperphosphatemia, Grade ≥3: 0 no. (%)
  Treatment-related adverse event: Lacrimation increased, Any grade: 4 (12) no. (%)
  Treatment-related adverse event: Lacrimation increased, Grade 1: 4 (12) no. (%)
  Treatment-related adverse event: Lacrimation increased, Grade 2: 0 no. (%)
  Treatment-related adverse event: Lacrimation increased, Grade ≥3: 0 no. (%)
  Treatment-related adverse event: Nausea, Any grade: 5 (15) no. (%)
  Treatment-related adverse event: Nausea, Grade 1: 3 (9) no. (%)
  Treatment-related adverse event: Nausea, Grade 2: 2 (6) no. (%)
  Treatment-related adverse event: Nausea, Grade ≥3: 0 no. (%)
  Treatment-related adverse event: Onycholysis, Any grade: 6 (18) no. (%)
  Treatment-related adverse event: Onycholysis, Grade 1: 2 (6) no. (%)
  Treatment-related adverse event: Onycholysis, Grade 2: 3 (9) no. (%)
  Treatment-related adverse event: Onycholysis, Grade ≥3: 1 (3) no. (%)
  Treatment-related adverse event: Onychomadesis, Any grade: 1 (3) no. (%)
  Treatment-related adverse event: Onychomadesis, Grade 1: 1 (3) no. (%)
  Treatment-related adverse event: Onychomadesis, Grade 2: 0 no. (%)
  Treatment-related adverse event: Onychomadesis, Grade ≥3: 0 no. (%)
  Treatment-related adverse event: Paronychia, Any grade: 2 (6) no. (%)
  Treatment-related adverse event: Paronychia, Grade 1: 0 no. (%)
  Treatment-related adverse event: Paronychia, Grade 2: 2 (6) no. (%)
  Treatment-related adverse event: Paronychia, Grade ≥3: 0 no. (%)
  Treatment-related adverse event: Retinal detachment, Any grade: 2 (6) no. (%)
  Treatment-related adverse event: Retinal detachment, Grade 1: 1 (3) no. (%)
  Treatment-related adverse event: Retinal detachment, Grade 2: 1 (3) no. (%)
  Treatment-related adverse event: Retinal detachment, Grade ≥3: 0 no. (%)
  Treatment-related adverse event: Stomatitis, Any grade: 16 (49) no. (%)
  Treatment-related adverse event: Stomatitis, Grade 1: 9 (27) no. (%)
  Treatment-related adverse event: Stomatitis, Grade 2: 6 (18) no. (%)
  Treatment-related adverse event: Stomatitis, Grade ≥3: 1 (3) no. (%)
  Treatment-related adverse event: Vision blurred, Any grade: 5 (15) no. (%)
  Treatment-related adverse event: Vision blurred, Grade 1: 4 (12) no. (%)
  Treatment-related adverse event: Vision blurred, Grade 2: 1 (3) no. (%)
  Treatment-related adverse event: Vision blurred, Grade ≥3: 0 no. (%)
41 patients of the 8 mg regimen uptitrated to 9 mg per day
  Patients who required ≥1 dose reduction: 59%
Regimen 3
  Hyperphosphatemia leading to dose reduction: 9%
  Hyperphosphatemia reported: 77%
  Patients discontinued due to treatment-emergent adverse events: 13%
  Patients who required dose reduction: 56%
  Stomatitis leading to dose reduction: 16%
  Treatment-emergent adverse events grade 3 or 4: 67%
All unresolved events were grade 1 or 2
  Central serious retinopathy events resolved: Seventy-six
In vivo
  Hyperphosphatemia managed by dose interruption: 23%
Normalized by cycle 5
  Time of peak phosphate elevation after erdafitinib initiation: 6 weeks
Overall trial population
  Patients with grade ≥3 treatment-emergent adverse events: 66%
Patients with eye disorders (n=62)
  Patients with grade 1 or 2 events among patients with eye disorders: 84%
